Assays:
[1] = tested on: ocular normotensive human patients with diabetic eye disease; experiment: Phase 2 trial: IOP after subcutaneous Compound 1 alone or with intravitreal ranibizumab, diabetic macular edema; assay type: in vivo; conditions: for Week 4 subject-level IOP change from BL, mean (SD) / Week 4 subject-level IOP, mean (SD) / Week 8 subject-level IOP change from BL, mean (SD) / Week 8 subject-level IOP, mean (SD) / Week 12 subject-level IOP change from BL, mean (SD) / Week 12 subject-level IOP, mean (SD): average of study eye and fellow eye
Experimental: IOP in patients were measured using a double-masked, parallel-group designed to assess the effects of subcutaneous (SC) Compound 1 (sodium salt) alone, or as an adjunct to intravitreal ranibizumab trial. 144 human subjects with diabetic retinopathy complicated by center-involved diabetic macular edema (DME) were randomized to 3 months of one of 3 treatments: 1) Compound 1 (15 mg) SC twice daily (BID) plus sham monthly intravitreal injection (IVT); 2) Compound 1 SC BID plus ranibizumab (0.3 mg) monthly IVT; and 3) Placebo SC BID+ranibizumab IVT. At baseline, mean age was 61.3±1.3 years; 59% of subjects were male; 82.6% had Type 2 diabetes; mean HBA1c was 7.5%±1.3%; mean best corrected visual acuity was 60.2 ETDRS letters (Snellen 20/63); and mean IOP was 15.7 mmHg±3.4. Ophthalmic safety assessments were performed at baseline and monthly during the 3-month treatment period including a single IOP measurement by applanation tonometry in both the study eye and the fellow eye at each time point. By protocol, all patients had baseline IOP<24 mmHg (ocular normotensive).
In the pre-specified safety analysis, change from baseline IOP was analyzed using a t-test (null hypothesis 0 change from baseline). The level of significance was set at 0.05. A post hoc analysis of the subject level IOP measure was the change from baseline in the average over both eyes within a subject for each timepoint. Statistical testing of each timepoint was completed using ANCOVA with baseline IOP (averaged over both eyes within a subject) as covariate. Additionally, statistical testing averaging across all timepoints was completed using a mixed-model repeated measures ANCOVA. The level of significance was set at 0.05.

[2] = tested on: patients with moderate to severe non-proliferative diabetic retinopathy; experiment: Phase 2 48-week trial: IOP after subcutaneous Compound 1 QD or BID, non-proliferative diabetic retinopathy; assay type: in vivo, human; conditions: for mean reduction in IOP compared to placebo: MMRM ANCOVA; for Week 12 IOP change from BL, mean (SD) / Week 12 IOP, mean (SD) / Week 36 IOP change from BL, mean (SD) / Week 36 IOP, mean (SD) / Week 48 IOP change from BL, mean (SD) / Week 48 IOP, mean (SD) / Week 24 IOP change from BL, mean (SD) / Week 24 IOP, mean (SD): averaged over both eyes; for Week 24 IOP change from BL, mean (SD) / Week 24 IOP, mean (SD): measured predose
Description: Eligible subjects were aged 18 to 80 years with moderate to severe NPDR. The major inclusion criteria for the qualified eyes included Early Treatment Diabetic Retinopathy Study (ETDRS) Severity Score≥43 and ≤53, no evidence of central involved diabetic macular edema (DME) and ETDRS≥70 letters using the ETDRS visual acuity charts. Study eye ocular exclusion criteria included uncontrolled glaucoma defined as IOP≥30 mm Hg on maximum IOP reduction therapy. Subjects were randomized 1:1:1 to either Compound 1, 15 mg once daily (QD), Compound 1, 15 mg twice daily (BID), or placebo BID treatment groups. Subjects self-administered the masked study medication (Compound 1 or placebo) supplied as sterile pre-filled single-use syringes. Subjects visited the clinical site monthly during the 48-week treatment period. A battery of comprehensive ophthalmic evaluations including IOP assessments were conducted every 12-weeks with either applanation tonometry or Tono-Pen® and the methodology was consistent throughout the study. On Day 1 and Week 24, IOP was measured prior to dosing. IOP data were analyzed using a mixed-model repeated measures ANCOVA, with visit as the repeated measure within subject. The model included change from baseline as the dependent variable. The p-value from the model was adjusted by baseline IOP. 167 patients with moderate to severe non-proliferative diabetic retinopathy (NPDR) without diabetic macular edema (DME) and a visual acuity of 20/40 or better were enrolled in a 48-week study of the effect of Compound 1 (sodium salt) in the treatment of NPDR. The IOP was measured at baseline, and at weeks 12, 24, 36, and 48. The trial consisted of three study arms: 1) patients receiving 15 mg of Compound 1 subcutaneously BID; 2) patients receiving placebo subcutaneously QD, and 15 mg of Compound 1 subcutaneously QD; and 3) patients receiving a placebo subcutaneously BID.

[3] = tested on: ocular normotensive New Zealand White rabbits; experiment: IOP in ocular normotensive rabbits, topical ocular or subcutaneous Compound 1; assay type: in vivo, rabbit
Experimental: To examine the effect of Compound 1 on IOP, Compound 1 was delivered either by subcutaneous injection, or by topical drops to ocular normotensive New Zealand White rabbits, and IOP was followed over time (FIGS. 3A-3C). For this study, 25 female New Zealand White rabbits were administered the sodium salt of Compound 1 for seven days QD or BID topically (30 μL drop) into both eyes, or twice daily subcutaneously, or vehicle twice daily topically into both eyes. Eye drops (4% Compound 1 or vehicle) were administered, with study staff masked to treatment. Five dose groups (5 rabbits per group) were tested: 1) vehicle control—15% HPβCD (+1% dextrose); 2) 1.5% (15 mg/mL) Compound 1 BID; 3) 4% (40 mg/mL) Compound 1 BID; 4) 4% (40 mg/mL) Compound 1 QD; and 5) 10 mg/kg (40 mg/mL) Compound 1 administered subcutaneously BID. IOP measurements were performed at baseline (prior to the start of dosing), and once daily on days 2-8. Prior to performing IOP measurements, 1 to 2 drops of a 0.5% proparacaine solution were applied to the eye as a topical anesthetic. IOP measurements were performed with a pneumotonometer 2 hours after morning dosing. The only exceptions were Day 8 measurements, which were performed 24 hours after the final dose. IOP data were analyzed using a mixed-design two-factor ANOVA, with time as the within-subjects factor and treatment as the between-subjects factor. IOP values for Day 7 and Day 8 were analyzed using one-way ANOVA. The change from baseline IOP on Day 7 and on Day 8 was calculated for each animal, and the resulting values were analyzed using one-way ANOVA. Area under the curve (AUC) was calculated for all morning IOP measurements throughout the study for each group; AUC values for the different groups were analyzed using one-way ANOVA. Where appropriate, post hoc testing was performed using Tukey's multiple comparisons tests. The level of significance was set at 0.05.

[4] = week 12, listed as All Compound 1
[5] = week 12, listed as Compound 1 + Sham
[6] = 10 mg/kg BID subcutaneous injection

COC(=O)N[C@@H](Cc1ccccc1)C(=O)N[C@@H](Cc1ccc(NS(=O)(=O)O)cc1)c1csc(-c2cccs2)n1 [Compound 1, 4-{(S)-2-[(S)-2-(Methoxycarbonylamino)-3-phenylpropanamido]-2-[2-(thiophen-2-yl)thiazol-4-yl]ethyl}phenylsulfamic acid]
Week 4 subject-level IOP change from BL, mean (SD) ([1]; listed as All Compound 1): −1.2 (2.92) mmHg
Week 4 subject-level IOP, mean (SD) ([1]; listed as All Compound 1): 14.5 (2.92) mmHg
Week 4 subject-level IOP change from BL, mean (SD) ([1]; listed as Compound 1 + Sham): −0.8 (3.14) mmHg
Week 4 subject-level IOP, mean (SD) ([1]; listed as Compound 1 + Sham): 14.7 (2.88) mmHg
Week 8 subject-level IOP change from BL, mean (SD) ([1]; listed as All Compound 1): −1.3 (3.17) mmHg
Week 8 subject-level IOP, mean (SD) ([1]; listed as All Compound 1): 14.5 (3.31) mmHg
Week 8 subject-level IOP change from BL, mean (SD) ([1]; listed as Compound 1 + Sham): −1.1 (3.25) mmHg
Week 8 subject-level IOP, mean (SD) ([1]; listed as Compound 1 + Sham): 14.4 (3.26) mmHg
Week 12 subject-level IOP change from BL, mean (SD) [1, 4]: −1.3 (2.93) mmHg
Week 12 subject-level IOP, mean (SD) [1, 4]: 14.5 (3.31) mmHg
Week 12 subject-level IOP change from BL, mean (SD) [1, 5]: −1.4 (2.98) mmHg
Week 12 subject-level IOP, mean (SD) [1, 5]: 14.1 (3.36) mmHg
Week 4 IOP change from BL, mean (SD) ([1]; fellow eye (FE)): −0.8 (3.36) mmHg
Week 8 IOP change from BL, mean (SD) ([1]; fellow eye (FE)): −1.1 (3.58) mmHg
Week 12 IOP change from BL, mean (SD) ([1]; fellow eye (FE), week 12): −1.4 (3.29) mmHg
Week 12 IOP, mean (SD) ([1]; fellow eye (FE), week 12): 14.0 (3.41) mmHg
Week 4 IOP change from BL, mean (SD) ([1]; study eye (SE)): −0.8 (3.34) mmHg
Week 8 IOP change from BL, mean (SD) ([1]; study eye (SE)): −1.1 (3.37) mmHg
Week 12 IOP change from BL, mean (SD) ([1]; study eye (SE), week 12): −1.4 (3.16) mmHg
mean reduction in IOP compared to placebo ([2]; 15 mg SC BID): 1.15 mmHg
Week 12 IOP change from BL, mean (SD) ([2]; 15 mg SC BID): −0.91 (3.20) mmHg
Week 12 IOP, mean (SD) ([2]; 15 mg SC BID): 14.6 (2.93) mmHg
Week 36 IOP change from BL, mean (SD) ([2]; 15 mg SC BID): −1.48 (3.48) mmHg
Week 36 IOP, mean (SD) ([2]; 15 mg SC BID): 14.0 (2.74) mmHg
Week 48 IOP change from BL, mean (SD) ([2]; 15 mg SC BID): −0.94 (3.00) mmHg
Week 48 IOP, mean (SD) ([2]; 15 mg SC BID): 14.6 (2.73) mmHg
Week 24 IOP change from BL, mean (SD) ([2]; 15 mg SC BID): −1.27 (3.31) mmHg
Week 24 IOP, mean (SD) ([2]; 15 mg SC BID): 14.2 (2.60) mmHg
mean reduction in IOP compared to placebo ([2]; 15 mg SC QD): 0.70 mmHg
Week 12 IOP change from BL, mean (SD) ([2]; 15 mg SC QD): −0.56 (2.83) mmHg
Week 12 IOP, mean (SD) ([2]; 15 mg SC QD): 15.3 (2.75) mmHg
Week 36 IOP change from BL, mean (SD) ([2]; 15 mg SC QD): −0.94 (3.39) mmHg
Week 36 IOP, mean (SD) ([2]; 15 mg SC QD): 14.9 (3.58) mmHg
Week 48 IOP change from BL, mean (SD) ([2]; 15 mg SC QD): −0.72 (2.80) mmHg
Week 48 IOP, mean (SD) ([2]; 15 mg SC QD): 15.2 (2.84) mmHg
Week 24 IOP change from BL, mean (SD) ([2]; 15 mg SC QD): −0.56 (2.99) mmHg
Week 24 IOP, mean (SD) ([2]; 15 mg SC QD): 15.3 (2.90) mmHg
IOP-lowering effect on the last day of dosing (Day 7) [3, 6]: the effect did not persist
IOP-lowering effect relative to vehicle control on Days 3 and 4 [3, 6]: significant maximum IOP-lowering effect
area under the curve for IOP values over 7 days versus vehicle, 1.5% TO BID or 10 mg/kg SC BID ([3]; 4% topical ocular QD or BID): statistically-significantly lower
time to steady-state effect on IOP ([3]; daily topical ocular dosing of 4.0%): steady-state effect on IOP was observed by Day 3
IOP reduction, topical ocular versus subcutaneous administration ([3]; rabbits): larger with topical ocular administration than with subcutaneous administration
IOP-lowering effect versus vehicle control or 1.5% Compound 1 BID ([3]; topical ocular 4% QD and BID, 7 days): significantly larger IOP-lowering effect
IOP on Day 8, 24 hours after the last dose ([3]; two high-dose (4%) topical ocular groups): significant reduction in IOP persisted on Day 8
